What follows are compounds tested against T1, LSD1 (Homo sapiens, UniProt O60341) (assay: LSD1 histone demethylase assay (LSD1 Inhibitor Screening Assay Kit, Cayman)). Settings: not given.
T1 construct: purchased Cayman Chemical Company 700120
Type: biochemical
Experimental: Recombinant (expressed in baculovirus infected BTI insect cells) monoamine oxidase A and monoamine oxidase B (Catalog No. M7316 and M7441, respectively) were purchased from Sigma-Aldrich Co. LLC. (St. Louis, Mo.). MAO-Glo™ Assay Kit was purchased from Promega Corporation (Madison, Wis.). ATPlite™ Luminescence Assay System (e.g. Catalog No. V1401) was purchased from PerkinElmer Inc. (Waltham, Mass.).
Briefly, test compounds were diluted to 20× the desired test concentration in 100% DMSO and 2.5 μL of the diluted test sample was added to a black 384-well plate. The LSD1 enzyme stock was diluted 17-fold with assay buffer, and 40 μL of the diluted LSD1 enzyme was added to the appropriate wells. Substrate, consisting of horseradish peroxidase, dimethyl K4 peptide corresponding to the first 21 amino acids of the N-terminal tail of histone H3, and 10-acetyl-3,7-dihydroxyphenoxazine was then added to wells. Resorufin was analyzed on an Envision plate reader with an excitation wavelength of 530 nm and an emission wavelength of 595 nm.
IC50 values are determined using GraphPad Prism 5 software. The data were entered as an X-Y plot into the software as percent inhibition for each concentration of the drug. The concentration values of the drug were log transformed and the nonlinear regression was carried out using the “sigmoidal dose-response (variable slope)” option within the GraphPad software to model the data and calculate IC50 values.

SMILES	IC50 [µM]
CCN1CCN(S(=O)(=O)c2cccc(C(=O)NN=C3CCc4c(Cl)cc(C)c(O)c43)c2)CC1 (stereo in doubt) [SP-10047_Z, (E)-N′-(4-chloro-7-hydroxy-6-methyl-2,3-dihydro-1H-Inden-1-ylidene)-3-((4-ethylpiperazin-1-yl)sulfonyl)benzohydrazide]	0.426
CC1CC(=NNC(=O)c2cccc(S(=O)(=O)N3CCN(C)CC3)c2)c2c(O)ccc(Cl)c21 (stereo in doubt) [SP-10054_Z, (E)-N′-(4-chloro-7-hydroxy-3-methyl-2,3-dihydro-1H-inden-1-ylidene)-3-((4-methylpiperazin-1-yl)sulfonyl)benzohydrazide]	0.029
CC1CC(=NNC(=O)c2cccc(S(=O)(=O)N3CCOCC3)c2)c2c(O)ccc(Cl)c21 (stereo in doubt) [SP-10055_Z, (E)-N′-(4-chloro-7-hydroxy-3-methyl-2,3-dihydro-1H-inden-1-ylidene)-3-(morpholinosulfonyl)benzohydrazide]	0.418
CN1CCN(S(=O)(=O)c2cccc(C(=O)N/N=C3\CCc4cc(O)cc(Cl)c43)c2)CC1 [SP-10043-E, (E)-N′-(7-chloro-5-hydroxy-2,3-dihydro-1H-inden-1-ylidene)-3-((4-methylpiperazin-1-yl)sulfonyl)benzohydrazide]	> 10
CN1CCN(S(=O)(=O)c2cccc(C(=O)N/N=C3/CCc4cc(O)cc(Cl)c43)c2)CC1 [SP-10043_Z]	> 10
CN1CCN(S(=O)(=O)c2cccc(C(=O)N/N=C3/CCc4c(F)ccc(O)c43)c2)CC1 [SP-10044_Z]	0.403
Cc1cc(Cl)c2c(c1O)/C(=N/NC(=O)c1cccc(S(=O)(=O)N3CCC(C)CC3)c1)CC2 [SP-10046_E, (E)-N′-(4-chloro-7-hydroxy-6-methyl-2,3-dihydro-1H-inden-1-ylidene)-3-((4-methylpiperidin-1-yl)sulfonyl)benzohydrazide]	> 10
CC1C/C(=N\NC(=O)c2cccc(S(=O)(=O)N3CCOCC3)c2)c2c(O)ccc(Cl)c21 (stereo not drawn) [SP-10055_E, (E)-N′-(4-chloro-7-hydroxy-3-methyl-2,3-dihydro-1H-inden-1-ylidene)-3-(morpholinosulfonyl)benzohydrazide]	0.078
Cc1ccc(Cl)c2c1/C(=N/NC(=O)c1cccc(S(=O)(=O)N3CCN(C)CC3)c1)CC2 [SP-10061_E, (E)-N′-(4-chloro-7-methyl-2,3-dihydro-1H-inden-1-ylidene)-3-((4-methylpiperazin-1-yl)sulfonyl)benzohydrazide]	30.4

The compounds below were run against T2, LSD2 (Homo sapiens, UniProt Q8NB78) (assay: LSD2 enzymatic activity (FIG. 4)). Settings: not given.
T2 sequence (Q8NB78 1-822): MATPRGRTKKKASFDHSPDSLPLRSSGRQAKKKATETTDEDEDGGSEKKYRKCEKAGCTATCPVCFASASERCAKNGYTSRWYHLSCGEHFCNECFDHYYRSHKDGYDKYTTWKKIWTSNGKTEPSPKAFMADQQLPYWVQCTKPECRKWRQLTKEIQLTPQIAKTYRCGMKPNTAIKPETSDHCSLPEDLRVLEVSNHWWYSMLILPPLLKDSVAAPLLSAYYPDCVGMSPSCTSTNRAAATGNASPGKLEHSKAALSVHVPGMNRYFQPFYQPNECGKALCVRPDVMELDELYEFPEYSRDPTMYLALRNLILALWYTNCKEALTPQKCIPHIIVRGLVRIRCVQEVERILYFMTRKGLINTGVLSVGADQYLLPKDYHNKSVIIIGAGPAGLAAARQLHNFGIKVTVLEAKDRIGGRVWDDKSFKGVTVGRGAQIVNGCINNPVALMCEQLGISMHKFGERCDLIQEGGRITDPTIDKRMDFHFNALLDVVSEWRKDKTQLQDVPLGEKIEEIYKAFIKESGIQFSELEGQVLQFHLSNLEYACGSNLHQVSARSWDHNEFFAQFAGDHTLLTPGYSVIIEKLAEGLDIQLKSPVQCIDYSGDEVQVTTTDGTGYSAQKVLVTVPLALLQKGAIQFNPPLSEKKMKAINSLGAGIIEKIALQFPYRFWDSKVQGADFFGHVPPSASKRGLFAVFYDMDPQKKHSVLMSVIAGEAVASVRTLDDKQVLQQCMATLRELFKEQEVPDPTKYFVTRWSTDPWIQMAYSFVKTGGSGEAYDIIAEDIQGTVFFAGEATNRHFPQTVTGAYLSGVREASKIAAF
Type: biochemical
From the text: Inhibition of LSD activity can be determined by a variety of both in vitro and in vivo methods known to one skilled in the art. For example, enzymatic activity can be determined in in vitro enzyme assay systems. In various aspects, the enzymatic activity of either LSD1 or LSD2 can be determined in a spectrophometric assay. Briefly, the assay is based on the multistep enzymatic reaction in which LSD1 or LSD2 first produces H2O2 during the demethylation of lysine 4 on a peptide corresponding to the first 21 amino acids of the N-terminal tail of histone H3. In the presence of horseradish peroxidase, the H2O2 produced reacts with ADHP to produce the highly fluorescent compound resorufin that can be analyzed with an excitation wavelength of 530-540 nm and an emission wavelength of 585-595 nm. The assay requires a source of LSD or LSD2 enzyme, either purified from natural sources (e.g. a tissue or cultured cells), isolated as a recombinantly expressed protein, or as a unpurified protein in whole cell extracts.

SMILES	inhibition of LSD2 activity (in words, FIG. 4)
CN1CCN(S(=O)(=O)c2cccc(C(=O)N/N=C3\CCc4c(Cl)ccc(O)c43)c2)CC1 [SP-10041_E, (E)-N′-(4-chloro-7-hydroxy-2,3-dihydro-1H-inden-1-ylidene)-3-((4-methylpiperazin-1-yl)sulfonyl)benzohydrazide]	significantly inhibit
CN1CCN(S(=O)(=O)c2cccc(C(=O)N/N=C3/CCc4c(Cl)ccc(O)c43)c2)CC1 [SP-10041_Z]	significantly inhibit

These compounds were tested on Ewing's sarcoma cells (assay: Cell viability with drug screening (CellTiter Glo, 72 hour)). Settings: SK-N-MC, SKESI, A673 cells.
Type: cell-based
Experimental: A hemocytometer count is performed to determine cell concentration. In a 96-well tissue culture plate, 2000 cells per well are plated for each drug concentration. Generally, 10 wells are done in duplicate. Then, the plates are placed in incubator overnight to allow cells to adhere to the plate (If suspension cells, proceed to the next step). Then, the desired drug concentrations are added to each well (ex. Serial dilutions 10 uM, 3 uM, 1 uM, […] . . . etc.). Generally, each drug concentration is made at 10× in media and then 10 uL of drug is diluted in 90 uL of cells to get the final desired concentration. Then, the cells are incubated at 37° C. for 72 hours; after 72 hours, 100 uL of Promega Cell Titer Glo is added, and allowed incubation at room temperature for 10 minutes. Finally, the plates are read using the Envision software. Data analysis is performed using Graph Pad Prism 6.
FIGS. 5-7 depict graphs showing 72 hour time course cell viability of Ewing's sarcoma using CellTiter Glo (Promega). The tested compound was 10054Z and the control compound was 2606 which has the following structure: […]

SMILES	viability of Ewing's sarcoma cells (in words, FIGS. 5-7)
CC1CC(=NNC(=O)c2cccc(S(=O)(=O)N3CCN(C)CC3)c2)c2c(O)ccc(Cl)c21 (stereo in doubt) [SP-10054_Z, (E)-N′-(4-chloro-7-hydroxy-3-methyl-2,3-dihydro-1H-inden-1-ylidene)-3-((4-methylpiperazin-1-yl)sulfonyl)benzohydrazide]	significantly decrease the viability
